Results published in patent US11760784B2, “Compositions comprising PEDF-derived short peptides and uses thereof” (BRIM Biotechnology, Inc., priority 2016, dated 2023).
Entries after “also recorded” stand apart in the source; their conditions may differ.

Legend:
[1] = tested on: desiccating stress-induced dry eye; experiment: Tear production by phenol red thread test in CEC dry eye mice; type: in vivo, C57BL/6 mice; settings: for ability to induce tear production (alanine scanning of the 29mer): CEC dry eye mice, phenol red thread method (FIG. 9)
Procedure: (§1) Dry eye was induced by placing mice in a controlled environment chamber (CEC) as previously described (Barabino et al., 2005). Briefly, mice placed in the CEC were exposed to a relative humidity (RH)<25%, temperature of 20 to 22° C., and airflow of 15 L/min, 12 hours per day. Non-stressed (NS) mice without stress-induced dry eye were kept in a normal environment (RH >50%, no air flow, temperature of 21-23° C.) for the same duration. Corneal fluorescein staining and
Tear production was measured with phenol red-impregnated cotton threads (Zone-Quick; Oasis, Glendora, CA). The validity of this test in mice was performed as previously described (Dursun et al., 2002). The threads were held with jeweler forceps and placed in the lateral canthus for 60 seconds. The tear production is expressed in millimeters of thread that is wet by the tear and turned red.
To determine whether PDSP have therapeutic effects in a desiccating stress (DS)-induced ocular surface defects, mice were housed at controlled environment chamber (CEC) for 14 days to create ocular surface disruption. After 14 days in CEC, we used mice with fluorescence scores that are above 2 for the first experiments (FIG. 1A). […]

[2] = tested on: desiccating stress-induced dry eye; experiment: Corneal fluorescein staining in desiccating stress-induced dry eye (CEC) mice; type: in vivo, C57BL/6 mice; settings: therapeutic: CEC 14 days to induce dry eye, then peptide on the eyes for 5 days
Procedure: In an animal model for dry eye diseases, mice were placed in a controlled environment chamber (CEC) to induce dry eyes as previously described (Barabino et al., 2005). Mice placed in the CEC were exposed to a relative humidity (RH)<25%, temperature of 20 to 22° C., with an airflow of 15 L/min, 12 hours per day. Non-Stressed mice were kept in a normal environment (RH >50%, no air flow, temperature of 21-23° C.) for the same duration. After 14 days, non-stressed mice were treated with vehicle, while the stressed mice were treated with either a test peptide (e.g., the 29mer PDSP) or vehicle solution (Vehicle group) for 5 days. Then, the cornea was examined with fluorescein staining.
Seven to 8-week-old female C57BL/6 mice were used for these experiments. Experimental procedures were approved by the Mackay Memorial Hospital Review Board and conducted according to the ARVO Statement for the Use of Animals in Ophthalmic and Vision Research.
as §1
Animals were anesthetized by an intraperitoneal injection of a mixture of zoletil (6 mg/kg) and xylazine (3 mg/kg). Corneal epithelial injury was determined by staining with topical fluorescein (Fluor-I-Strip, Ayerst Laboratories, Philadelphia, Pa.). Corneal fluorescein staining was examined with a slit-lamp biomicroscope under cobalt blue light and photographed with a digital camera. Dye staining of the cornea was scored in a manner as follows: score 0 for no punctuate staining; score 1 when less than one third of the cornea was stained; score 2 when two thirds or less was stained; and score 3 when more than two thirds was stained (Horwath-Winter J 2013).
To determine whether PDSP have therapeutic effects in a desiccating stress (DS)-induced ocular surface defects, mice were housed at controlled environment chamber (CEC) for 14 days to create ocular surface disruption. After 14 days in CEC, we used mice with fluorescence scores that are above 2 for the first experiments (FIG. 1A). Subsequently, dry eyes were treated topically with PDSP at 25-200 μM (3 times/day) or PDSP vehicle (1% CMC in BSS) for another 5 days while maintaining the same desiccating stress protocol.
To investigate whether the PDSP can suppress DS-induced corneal epithelial disruption, we applied the 14-day desiccating stress protocol to mice, and treated these mice topically with PDSP 3 times a day.

[3] = tested on: C2C12 cells; experiment: Cell viability of C2C12 cells in culture (MTT assay), alanine scanning; type: cell-based; settings: C2C12 cell cultures (FIG. 10)
Procedure: This was tested with cell viability in cell cultures. […] Cell viability may be assessed with staining and cell number counts or with MTT assays. These techniques are well known in the art.

[4] = tested on: desiccating stress-induced dry eye; experiment: Corneal fluorescein staining in desiccating stress-induced dry eye (CEC) mice; type: in vivo, C57BL/6 mice; settings: CEC 14 days, then peptide for 3 days (FIG. 11); listed as mouse PDSP

**Q.** “A96G: human PDSP 29mer with glycine substitution at residue 4 (A96) (Ac-SLGGEQRTESIIHRALYYDLISSPDIHGT-NH2; UniProt P36955 93-121, looked up, variant A96G)” was tested. Which “ability to induce tear production (alanine scanning of the 29mer)” value [1] did it give?
**A.** substantial losses of abilities of PDSP to induce tear production

**Q.** And the “corneal surface damage by fluorescein staining” value [2]?
**A.** substantial loss of PDSP activity

**Q.** And the “ability to sustain/enhance viabilities of the cells (alanine scanning of the 29mer)” value [3]?
**A.** substantially abolished

**Q.** How did the “ability to induce tear production (alanine scanning of the 29mer)” value [1] turn out when “I104A: human PDSP 29mer with alanine substitution at residue 12 (I104) (SLGAEQRTESIAHRALYYDLISSPDIHGT; UniProt P36955 93-121, looked up, variant I104A)” was run?
**A.** substantial losses of abilities of PDSP to induce tear production

**Q.** What about the “corneal surface damage by fluorescein staining” value [2] of the same substance?
**A.** substantial loss of PDSP activity

**Q.** And the “ability to sustain/enhance viabilities of the cells (alanine scanning of the 29mer)” value [3]?
**A.** substantially abolished

**Q.** What does the source list for “Q98A: human PDSP 29mer with alanine substitution at residue 6 (Q98) (SLGAEARTESIIHRALYYDLISSPDIHGT; UniProt P36955 93-121, looked up, variant Q98A)”?
**A.** ability to induce tear production (alanine scanning of the 29mer) [1]: substantial losses of abilities of PDSP to induce tear production; corneal surface damage by fluorescein staining [2]: substantial loss of PDSP activity; ability to sustain/enhance viabilities of the cells (alanine scanning of the 29mer) [3]: substantially abolished

**Q.** Which results are given for “R106A: human PDSP 29mer with alanine substitution at residue 14 (R106) (SLGAEQRTESIIHAALYYDLISSPDIHGT; UniProt P36955 93-121, looked up, variant R106A)”?
**A.** ability to induce tear production (alanine scanning of the 29mer) [1]: substantial losses of abilities of PDSP to induce tear production; corneal surface damage by fluorescein staining [2]: substantial loss of PDSP activity; ability to sustain/enhance viabilities of the cells (alanine scanning of the 29mer) [3]: substantially abolished

**Q.** “moPDSP 29mer: corresponding mouse sequence SLGAEHRTESVIHRALYYDLITNPDIHST (SEQ ID NO:5) (listed as Mus musculus)” was tested. Which “tear production (phenol red thread), human vs mouse PDSP” value ([1]; CEC 14 days, then peptide for 3 days (FIG. 12), listed as mouse PDSP) did it give?
**A.** capable of restore; also recorded: improved tear productions to the same extent

**Q.** And the “corneal damage by corneal fluorescein staining, human vs mouse 29mer” value [4]?
**A.** capable of restore the ocular surface damages
